# What was measured:
# PSA [1] = biological target: T1, PSA (Homo sapiens, UniProt P07288); assay: PSA activity assay, inhibition kinetics by progress curves; format: biochemical
# [2] = tested on: CWR22R-H PSA-producing human prostate cancer xenograft; assay: Growth of subcutaneous CWR22R-H xenografts; conditions: 33 mg/kg/dose iv x 6 doses (46: equimolar doses); significant only at day 6
# [3] = Initial toxicologic studies, intravenous doses in mice; format: in vivo, mouse
# [4] = tested on: CWR22R-H PSA-producing human prostate cancer xenograft; assay: Serum free and total PSA per gram of tumor in CWR22R-H xenograft mice; format: in vivo; conditions: over the 10 day period between PSA measurements; 33 mg/kg/dose x 6
# trypsin = assay: Protease specificity: trypsin + Bz-R-AMC; format: biochemical
# PSA [5] = biological target: T1, PSA; conditions: 1.5 μM inhibitor, 2 nM PSA, 37°C, 1 hr
# cathepsin D = cathepsin D (Bos taurus, UniProt P80209); assay: Protease specificity: Cathepsin D Assay Kit; format: biochemical; conditions: in words; over a range of concentrations
# Chain of cathepsin D (P80209 45-390): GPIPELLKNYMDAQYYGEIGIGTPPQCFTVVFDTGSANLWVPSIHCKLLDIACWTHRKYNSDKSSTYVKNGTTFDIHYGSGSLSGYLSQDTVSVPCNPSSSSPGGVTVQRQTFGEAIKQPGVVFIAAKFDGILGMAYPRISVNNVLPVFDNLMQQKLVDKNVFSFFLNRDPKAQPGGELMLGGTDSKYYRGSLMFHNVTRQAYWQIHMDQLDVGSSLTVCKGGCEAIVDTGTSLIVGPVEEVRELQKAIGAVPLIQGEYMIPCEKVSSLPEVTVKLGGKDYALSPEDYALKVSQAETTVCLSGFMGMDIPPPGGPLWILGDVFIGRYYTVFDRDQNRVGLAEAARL
# elastase = assay: Protease specificity: elastase + suc-AAPV-AMC; format: biochemical
# cathepsin B = cathepsin B (Homo sapiens, UniProt P07858); assay: Protease specificity: cathepsin B + Z-RR-AMC; format: biochemical; conditions: in words; over a range of concentrations
# [6] = tested on: PSA-negative TSU human bladder cancer cells; assay: Clonal survival assay, TSU; format: cell-based; conditions: under these same conditions (100 nM, 1 μM)
# [7] = tested on: LNCaP, LAPC-4, CWR22R, C4-2B, DU145, PC3 human prostate cancer cell lines; assay: MTT growth assay, panel of prostate cancer cell lines; format: cell-based; conditions: 100 nM; cells attached 24 hr before exposure
# PSA [8] = biological target: T1, PSA; conditions: 500 nM inhibitor, 37°C, western blot
# chymotrypsin = assay: Protease specificity: chymotrypsin + suc-AAF-AMC; format: biochemical
# [9] = tested on: PSA-positive LNCaP human prostate cancer cells; assay: Clonal survival assay, LNCaP; format: cell-based; conditions: compared to vehicle-treated control
# [10] = biological target: dipeptidyl peptidase 4 (DPP-4) (Homo sapiens, UniProt P27487); assay: Protease specificity: DPP-4 + AP-AFC; format: biochemical
# Chain of dipeptidyl peptidase 4 (DPP-4) (P27487 whole entry, species assumed): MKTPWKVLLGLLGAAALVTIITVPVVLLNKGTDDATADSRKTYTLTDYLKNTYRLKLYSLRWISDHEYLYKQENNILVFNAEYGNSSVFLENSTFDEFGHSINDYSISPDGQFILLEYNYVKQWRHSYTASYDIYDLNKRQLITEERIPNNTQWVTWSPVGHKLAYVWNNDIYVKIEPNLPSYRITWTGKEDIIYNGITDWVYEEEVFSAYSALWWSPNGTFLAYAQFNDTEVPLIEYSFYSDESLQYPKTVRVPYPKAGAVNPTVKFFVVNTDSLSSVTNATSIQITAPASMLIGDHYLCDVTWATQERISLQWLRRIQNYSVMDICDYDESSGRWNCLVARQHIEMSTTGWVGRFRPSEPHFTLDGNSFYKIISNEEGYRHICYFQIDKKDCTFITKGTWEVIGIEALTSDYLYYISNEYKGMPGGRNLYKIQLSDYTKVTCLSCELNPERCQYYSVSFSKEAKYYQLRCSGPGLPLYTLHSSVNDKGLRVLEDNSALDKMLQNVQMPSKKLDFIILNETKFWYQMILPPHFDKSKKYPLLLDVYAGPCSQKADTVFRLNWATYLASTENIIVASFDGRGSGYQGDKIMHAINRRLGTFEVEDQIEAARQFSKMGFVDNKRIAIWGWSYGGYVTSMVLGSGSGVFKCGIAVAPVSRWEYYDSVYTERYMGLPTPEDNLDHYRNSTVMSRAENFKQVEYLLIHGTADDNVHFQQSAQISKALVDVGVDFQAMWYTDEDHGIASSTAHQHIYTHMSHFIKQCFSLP
# [11] = compared to full-length Z-SSKLL-H
# T1 sequence (P07288 25-261): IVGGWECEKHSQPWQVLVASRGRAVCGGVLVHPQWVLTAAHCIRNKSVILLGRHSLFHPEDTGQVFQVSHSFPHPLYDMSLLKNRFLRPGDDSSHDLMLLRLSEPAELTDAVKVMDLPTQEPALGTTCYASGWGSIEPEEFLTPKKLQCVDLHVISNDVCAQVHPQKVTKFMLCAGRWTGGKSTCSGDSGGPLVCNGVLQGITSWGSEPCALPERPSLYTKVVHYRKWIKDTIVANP
substance,measurement,setting,value
Z-KL(boro)Nle [compound 37],fold increase in Ki for PSA,PSA [1]; compared to Z-SSKL(boro)Nle,59 fold
Z-SSKL(boro)Nle [compound 38],fold increase in Ki for PSA,PSA [1]; compared to Z-SSKL(boro)L,~ 5 fold
Z-SSKIL-H [compound 4],fold higher Ki for PSA,PSA [1]; [11],~ 6 fold
Mu-SSKL(boro)L,effect on tumor volume / tumor growth compared to vehicle control,[2],slight decrease in tumor volume
same,effect on body weight,"[3]; dose of 100 mg/kg, mice",transient weight loss
same,lethality (fraction of the mice),[3]; dose of 300 mg/kg,one-third
same,effects on mouse body weight,[3]; repeat intravenous doses of 33 mg/kg,no significant effects
same,tolerability,"[3]; repeat intravenous doses of 33 mg/kg, mice",well tolerated
same,increase of free PSA levels/gram of tumor,[4],13%
same,increase of total PSA levels/gram of tumor,[4],1.85 fold
Z-SKLL-H [compound 8],fold higher Ki for PSA,PSA [1]; [11],~ 6.5 fold
Z-SSKL(boro)L [compound 39],inhibition of trypsin,trypsin; in words,did not inhibit
same,Ki,trypsin; trypsin,> 100 µM
same,Selectivity,trypsin; trypsin relative to PSA inhibition,>1500
same,PSA cleavage of the PTHrP peptide 1-34,PSA [5],completely inhibited
same,inhibition of cathepsin D,cathepsin D,no inhibition
same,selectivity for PSA over elastase,elastase,22 times
same,Ki,elastase; elastase,1.39 µM
same,Selectivity,elastase; elastase relative to PSA inhibition,22
same,inhibition of elastase,elastase; in words,Modest inhibition
same,inhibition of cathepsin B,cathepsin B,no inhibition
same,inhibition of clonal survival,[6],~ 25%
same,effect on growth of cell lines,[7],marginal effect
same,protection of IGFBP3 from degradation by PSA,PSA [8],protected IGFBP3 from degradation by PSA
same,fold higher Ki for chymotrypsin than for PSA,chymotrypsin,60 fold
same,Ki,chymotrypsin; chymotrypsin,3.9 µM
same,Selectivity,chymotrypsin; chymotrypsin relative to PSA inhibition,60
same,fold higher Ki for PSA,PSA [1]; compared to Z-SSL(boro)L,~ 8 fold
same,Selectivity,"PSA [1]; relative to PSA inhibition, PSA itself",1
same,inhibition of clonal survival,[9]; 100 nM,~ 75%
same,inhibition of clonal survival,[9]; 1 μM,~ 85%
same,Selectivity,[10]; DPPIV relative to PSA inhibition,>1500
same,inhibition of DPP-4,[10]; in words,did not inhibit
Z-SSKYL-H [compound 2],fold higher Ki for PSA,PSA [1]; [11],~ 2 fold
Z-KL(boro)L [compound 36],fold increase in Ki for PSA,PSA [1]; compared to Z-SSKL(boro)L,90 fold
Z-SSKLL-CH2OH [compound 26],inhibition of PSA,PSA [1]; in words,did not inhibit PSA
